Results reported in patent publication US10722505B2, “Substituted 2,4 diamino-quinoline as new anticancer agents” (GENOSCIENCE PHARMA, priority 2014, dated 2020).
Where a name gives a salt, the structure may show the parent alone.

Assays:
[1] = tested on: MOLM-14 cell line; test: CellTiter-Glo cell viability / growth inhibition assay, MOLM-14 (Example 5); type: cell-based; settings: Homo sapiens, 72 h
Method: (§1) All cell lines were maintained in medium containing 1% penicillin-streptomycin (Dutscher, P06-07100) and 10% Fetal Bovine Serum (Gibco, W3387L) except 20% for KG-1 cell line and PBMC, and cultured at 37° C. with 5% CO2.
MOLM-14 cell line was maintained in MEM alpha medium (Gibco, 22561-021).
(§2) Cell viability was measured using the CellTiter-Glo® luminescent cell viability assay as described by the manufacturer (Promega, Ref G7571) using an Infinite F200Pro luminometer (Tecan). Briefly, for adherent cells, cells were plated onto 96-well plates (white with clear bottom) in 90 μL of media per well and were allowed to grow overnight before the assay. For cells growing in suspension, cells were plated onto 96-well plates immediately before the assay.
(§3) Compounds were added at different concentrations to each well, and cell cultures were incubated for 72 h. Vehicle (H2O) was used as a control, and all compounds were tested in a constant percentage of H2O. After addition of 100 μL of CellTiter-Glo®, luminescence was measured using an Infinite F200Pro (Tecan). EC50 values were determined as the dose of compound required to reduce luminescent values to 50% of the signal obtained for untreated cell cultures. The experimental data were analyzed using a computer program, Graphpad Prism v5 (GraphPad Software, Inc. La Jolla, Calif.).
All experiments were at least done in duplicate and repeated two independent times.

[2] = tested on: LI0574 HCC patient derived cells; test: CellTiter-Glo growth inhibition, HCC patient-derived cells LI0574; type: cell-based, human; settings: Homo sapiens; LI0574, 72 hours
Method: (§4) The patient derived Hepatocellular Carcinoma (HCC) cells were maintained in medium respectively described in table 15 containing 1% penicillin-streptomycin (Life Technologies, 15070-063), with a supplements for primary cell culture (PCS) containing hydrocortisone (50 nM), Epidermal Growth Factor (20 ng/ml), β-fibroblast Growth Factor (10 ng/ml), Heparin (2 μg/ml) ITS liquid media supplement (1×) and non-essential amino acid (NEAA, 0.01 mM, 1×). The primary cell were cultured in a humidified atmosphere (95% relative humidity) with 5% CO2 at 37° C.
(§5) The cell growth inhibition assay was performed as described previously in example 5 using the CellTiter-Glo® luminescent cell viability assay as described by the manufacturer (Promega, Ref G7571). The number of cells seeded per well (in 96-Well Flat Clear Bottom Black Polystyrene TC-Treated Microplates, Cat #3340, Corning®) is described in the table 16. A backseal black sticker (Cat #6005189, Perkin Elmer) was placed to the bottom of each plate before recording CellTiter-Glo® luminescence.
(§6) The experimental data are analyzed using a computer program, Graphpad Prism V 5.0 (GraphPad Software, Inc. La Jolla, Calif.) and EC50 values were determined as the dose of compound required to reduce absorbance values to 50% of the signal obtained for vehicle treated cell cultures and were a mean of at least three independent experiments.

[3] = tested on: KG-1 cell line; test: CellTiter-Glo growth inhibition assay, KG-1; type: cell-based; settings: Homo sapiens; KG-1, acute myelogenous leukemia, 72 h
Method: as §1
(§7) KG-1 and MV4-11 cell line were maintained in Iscove's modified Dulbecco's medium (Dutscher, L0190).
as §2
as §3, with “Calif.). […]” for “Calif.).”

[4] = tested on: CPP36 liver metastatic CRC patient-derived cells; test: CellTiter-Glo growth inhibition, liver metastatic CRC patient-derived cells CPP36; type: cell-based; settings: Homo sapiens; CPP36, 72 h
Excerpt: (§8) Patient derived liver metastasis cells (CPP19, 30, 36 and CPP45—see table 1 for clinical descriptions) were maintained in complete DMEM (Gibco) with 10% FBS. Cells were obtained from biopsies provided by CHU-Caremeau (Nimes, France) within an approved protocol. Signed informed consents were obtained from patients prior to samples acquisition in accordance with all ethical and legal aspects. Tumors were washed, minced into fragments (<2 mm^3) and digested with liberase H (0.26 U/mL, Roche) resuspended in Accumax (Sigma-Aldrich). After 2 hours at 37° C., cell suspension was filtered through a […] to obtain a single cell suspension and plated in DMEM medium, supplemented with FBS, glutamine, antibiotics and non-essential aminoacids. When a monolayer of patient-derived tumor cells was formed, cells were detached using trypsin/EDTA and resuspended in DMEM with 10% FBS (for adherent cells) or defined M11 media (for sphere formation). Cells were cultured in a humidified atmosphere at 37° C. and 5% CO2.
(§9) Cells were plated at 10^4 cells per well in P96 well plates in DMEM with 10% FBS. After 24 hours, cells were treated with compound 2-3 and cell viability was assessed 72 h post-treatment by CellTiter-Glo® Luminescent Cell Viability Assay (Promega). EC50 were calculated using GraphPad Prism Software v6 (Graphpad Software, Inc La Jolla, Calif.). […]

[5] = tested on: MV4-11 cell line; test: CellTiter-Glo growth inhibition assay, MV4-11; type: cell-based; settings: Homo sapiens; MV4-11, biphenotypic B myelomonocytic leukemia, 72 h
Method: as §1, §7, §2
as §3, with “Calif.). […]” for “Calif.).”

[6] = tested on: CPP45 liver metastatic CRC patient-derived cells; test: CellTiter-Glo growth inhibition, liver metastatic CRC patient-derived cells CPP45; type: cell-based; settings: Homo sapiens; CPP45, 72 h
Excerpt: as §8, §9

[7] = tested on: LI1646 HCC patient derived cells; test: CellTiter-Glo growth inhibition, HCC patient-derived cells LI1646; type: cell-based, human; settings: Homo sapiens; LI1646, 72 hours
Method: as §4, §5, §6

- EC50 ([1]; MOLM-14, acute myeloïd leukemia, FLT3-ITD heterozygote+/−): 2.2 µM
- EC50 [2]: 2.4 µM
- EC50 [5]: 2.3 µM
- EC50 [7]: 1.4 µM
Compound: CC(C)(C)NC1CCN(c2cc(NCc3ccc(Cl)cc3)nc3ccccc23)CC1 [Compound 2-3, 2-(4-chlorobenzylamino)-4-(4-tert-butylaminopiperidin-1-yl)-quinoline hydrochloride salt]
- viability at 4 µM ([1]; MOLM-14, 4 μM): 31.8%
- viability at 10 µM ([1]; MOLM-14, 10 μM): 0.3%
- EC50 [3]: 5.1 µM
- EC50 [4]: 1.45 µM
- EC50 [6]: 1.12 µM
